Reference: patent publication US11059795B2, “Androgen receptor modulators and methods for their use” (ESSA Pharma, Inc., priority 2018, dated 2021)

Key:
[1] = Microsomal stability assay, mouse liver microsomes; type: in vitro ADME; settings: for microsomal CLint at 1 μM: mouse, liver microsomes, pH 7.4, mouse liver microsomes, 1 μM compound, 0.5 mg/mL protein, 37° C., read-out: MLM +30/− NADPH: Clint (μL/min/mg protein); for half-life at 1 μM: pH 7.4, mouse liver microsomes, read-out: Liver microsome T½ (min) Mouse
Outline: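 Compound at 1 μM was incubated at 37° C with 0.5 mg/mL liver microsomes and 1 mM NADPH and/or 1 mM UDPGA (with alamethicin) in 100 mM potassium phosphate pH 7.4, 3 mM MgCl2. Samples were taken at 0, 15, 30 and 60 min and measured by LC/MS/MS. t½ came from compound loss relative to 0 min, and Clint was scaled with 45 mg microsomal protein/g liver.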

[2] = Microsomal stability assay, dog liver microsomes; type: in vitro ADME; settings: pH 7.4, read-out: Liver microsome T½ (min) Dog
Experimental: (§1) Microsomal stability assay is a widely used in vitro model to characterize the metabolic conversion by phase I enzymes, such as cytochrome P450 (CYP) enzymes. Since metabolism is known to be highly variable in different species, microsomal stability assay is commonly run in multiple species. Metabolic stability of testing compound can be evaluated using human, rat, mouse, or other animal liver or intestine microsomes to predict intrinsic clearance.
(§2) The assay was carried out in 96-well microtiter plates at 37° C. Reaction mixtures (25 μL) contained a final concentration of 1 μM test compound, 0.5 mg/mL liver microsomes protein, and 1 mM NADPH and/or 1 mM UDPGA (with alamethicin) in 100 mM potassium phosphate, pH 7.4 buffer with 3 mM MgCl2. The incubation was done with N=1, but duplicate incubation at each time point can be prepared if necessary. At each of the time points (for example, 0, 15, 30, and 60 minutes), 150 μL of quench solution (100% acetonitrile with 0.1% formic acid) with internal standard was transferred to each well. Besides the zero minute controls, mixtures containing the same components except the NADPH can also be prepared as the negative control. Verapamil was included as a positive control to verify assay performance. Plates were sealed, vortexed, and centrifuged at 4° C. for 15 minutes at 4000 rpm. The supernatant is transferred to fresh plates for LC/MS/MS analysis.
(§3) Summarized conditions: [Compound]=[…], [LM]=0.5 mg/mL, [NADPH]=1 mM and/or [UDPGA]=1 mM, Buffer=100 mM Potassium Phosphate, pH 7.4 with 3 mM MgCl2, Time=0, 15, 30, and 60 min, and Temperature=37° C.
(§4) All samples were analyzed on LC/MS/MS using an AB Sciex API 4000 instrument, coupled to a Shimadzu LC-20AD LC Pump system. Analytical samples were separated using a Waters Atlantis T3 dC18 reverse phase HPLC column (20 mm×2.1 mm) at a flow rate of 0.5 mL/min. The mobile phase consisted of 0.1% formic acid in water (solvent A) and 0.1% formic acid in 100% acetonitrile (solvent B).
(§5) The extent of metabolism is calculated as the disappearance of the test compound, compared to the 0-min time incubation. Initial rates are calculated for the compound concentration and used to determine half-life (t½) values and subsequently, the intrinsic clearance (Clint). Clint=(0.693)(1/t½ (min))(g of liver/kg of body weight)(mL incubation/mg of microsomal protein)(45 mg of microsomal protein/g of liver weight)

[3] = molecular target: T1, LBD of estrogen receptor-α (ERα) fused to DBD of GAL4 (Homo sapiens, UniProt P03372); assay: LBD-expressing reporter assay (GeneBLAzer), ERα LBD; type: cell-based; settings: inhibition of maximal activity attained with agonist; read-out: Steroid Receptor LBD IC50 (μM) ERα
T1 sequence (P03372 311-547 limits assumed): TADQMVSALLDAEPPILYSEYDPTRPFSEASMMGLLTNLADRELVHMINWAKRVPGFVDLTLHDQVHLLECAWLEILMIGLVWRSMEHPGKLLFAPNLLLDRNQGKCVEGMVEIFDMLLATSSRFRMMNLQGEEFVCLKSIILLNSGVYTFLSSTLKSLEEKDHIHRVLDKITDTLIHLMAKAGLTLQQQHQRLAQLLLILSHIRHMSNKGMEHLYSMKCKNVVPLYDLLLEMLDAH
From the text: (§6) This assay uses cells that stably express a chimera fusion protein comprising the LBD of a steroid hormone receptor fused to the DNA-binding domain (DBD) of GAL4 along with beta-lactamase reporter under transcriptional control of an upstream activator sequence (UAS). When agonist binds to the LBD of the GAL4 (DBD)-steroid hormone (LBD) chimera fusion protein, the protein binds to the UAS, resulting in expression of beta-lactamase. LBDs of androgen receptor (AR), progesterone receptor-beta (PRβ), glucocorticoid receptor (GR), estrogen receptor-α (ERα), and estrogen receptor-β (ERβ) were tested and IC50s calculated for inhibiting maximal activity attained with agonist.

[4] = molecular target: T2, LBD of progesterone receptor-beta (PRβ) fused to DBD of GAL4 (Homo sapiens, UniProt P06401); assay: LBD-expressing reporter assay (GeneBLAzer), PR LBD; type: cell-based; settings: inhibition of maximal activity attained with agonist; read-out: Steroid Receptor LBD IC50 (μM) PR
T2 sequence (P06401 679-913 limits assumed): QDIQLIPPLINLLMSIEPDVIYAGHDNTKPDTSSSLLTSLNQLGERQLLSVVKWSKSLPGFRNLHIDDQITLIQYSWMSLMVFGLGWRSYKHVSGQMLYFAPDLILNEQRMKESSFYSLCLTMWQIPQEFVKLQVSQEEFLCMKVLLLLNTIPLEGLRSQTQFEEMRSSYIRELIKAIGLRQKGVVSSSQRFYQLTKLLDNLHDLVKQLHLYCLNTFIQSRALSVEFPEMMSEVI
From the text: as §6

[5] = Microsomal stability assay, rat liver microsomes; type: in vitro ADME; settings: pH 7.4, read-out: Liver microsome T½ (min) Rat
Experimental: as §1, §2, §3, §4, §5

Structure (SMILES)	microsomal CLint at 1 μM [1] [µL/min/mg]	half-life at 1 μM [1] [min]	half-life at 1 μM [2] [min]	IC50 [3] [µM]	IC50 [4] [µM]	half-life at 1 μM [5] [min]
C[C@H](Oc1ccc(C(C)(C)c2cc(Cl)c(OCCCl)c(C#N)c2)cc1)c1ccnc(NS(C)(=O)=O)n1 (single isomer, unassigned) [Compound A170]	< 12	–	–	–	–	–
CC(C)(c1ccc(OCc2ocnc2S(C)(=O)=O)cc1)c1cc(Cl)c(OCCCl)c(Cl)c1 [Compound A13, 5-((4-(2-(3,5-dichloro-4-(2-chloroethoxy)phenyl)propan-2-yl)phenoxy)methyl)-4-(methylsulfonyl)oxazole]	< 12	> 120	> 120	> 10	0.97	64
CC(C)(c1ccc(OCc2ocnc2S(C)(=O)=O)cc1)c1cc(Cl)c(OCCCl)c(C#N)c1 [Compound A28, 3-chloro-2-(2-chloroethoxy)-5-(2-(4-((4-(methylsulfonyl)oxazol-5-yl)methoxy)phenyl)propan-2-yl)benzonitrile]	12 to 48	74	> 120	> 10	0.93	23
CC(C)(c1ccc(OCc2ccnc(NS(C)(=O)=O)n2)cc1)c1cc(Cl)c(OCCCl)c(Cl)c1 [Compound A74, N-(4-((4-(2-(3,5-dichloro-4-(2-chloroethoxy)phenyl)propan-2-yl)phenoxy)methyl)pyrimidin-2-yl)methanesulfonamide]	< 12	> 120	> 120	> 10	5.41	> 120
CC(C)(c1ccc(OCc2ncc(S(C)(=O)=O)s2)cc1)c1cc(Cl)c(OCCCl)c(C#N)c1 [Compound A93, 3-chloro-2-(2-chloroethoxy)-5-(2-(4-((5-(methylsulfonyl)thiazol-2-yl)methoxy)phenyl)propan-2-yl)benzonitrile]	< 12	> 120	> 120	> 10	5.04	83
Cc1cnc(NS(C)(=O)=O)nc1COc1ccc(C(C)(C)c2cc(Cl)c(OCCCl)c(C#N)c2)cc1 [Compound A122, N-(4-((4-(2-(3-Chloro-4-(2-chloroethoxy)-5-cyanophenyl)propan-2-yl)phenoxy)methyl)-5-methylpyrimidin-2-yl)methanesulfonamide]	12 to 48	–	–	–	–	–
CC(C)(c1ccc(OCc2nc(S(C)(=O)=O)cs2)cc1)c1cc(Cl)c(OCCCl)c(C#N)c1 [Compound A136, 3-Chloro-2-(2-chloroethoxy)-5-(2-(4-((4-(methylsulfonyl)thiazol-2-yl)methoxy)phenyl)propan-2-yl)benzonitrile]	12 to 48	–	–	–	–	–
CC(C)(c1ccc(OC[C@H](O)CNS(C)(=O)=O)cc1)c1cc(Cl)c(OC[C@H](O)CCl)c(Cl)c1 [X, reference compound]	–	–	–	5.82	4.96	–

Further lines, results first:

microsomal CLint at 1 μM [1] [µL/min/mg]	half-life at 1 μM [1] [min]	half-life at 1 μM [2] [min]	IC50 [3] [µM]	IC50 [4] [µM]	half-life at 1 μM [5] [min]	Structure (SMILES)
< 12	> 120	> 120	> 10	5.07	12	CC(C)(c1ccc(OCc2coc(NS(C)(=O)=O)n2)cc1)c1cc(Cl)c(OCCCl)c(Cl)c1 [Compound A38, N-(4-((4-(2-(3,5-dichloro-4-(2-chloroethoxy)phenyl)propan-2-yl)phenoxy)methyl)oxazol-2-yl)methanesulfonamide]
< 12	> 120	> 120	> 10	5.61	> 120	CC(C)(c1ccc(OCc2ccnc(NS(C)(=O)=O)n2)cc1)c1cc(Cl)c(OCCCl)c(C#N)c1 [Compound A109, N-(4-((4-(2-(3-chloro-4-(2-chloroethoxy)-5-cyanophenyl)propan-2-yl)phenoxy)methyl)pyrimidin-2-yl)methanesulfonamide]
< 12	–	–	–	–	–	CCS(=O)(=O)Nc1nc(COc2ccc(C(C)(C)c3cc(Cl)c(OCCCl)c(C#N)c3)cc2)co1 [Compound A126]
< 12	–	–	–	–	–	CCS(=O)(=O)Nc1nccc(COc2ccc(C(C)(C)c3cc(Cl)c(OCCCl)c(C#N)c3)cc2)n1 [Compound A131]
